From PubChem BioAssay (NCI)
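Dose response: 5 concentrations. Exposure: 48 h. Format: 96-well plates. Endpoint: linear interpolation; highest concentration if not reached. At the GI50, growth is halved. TGI: concentration producing complete growth inhibition.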

Assays:
Assay in all cases: growth of human tumour cells (NCI), 48 h
TK-10 renal = tested on: TK-10 renal
RPMI-8226 leukemia = tested on: RPMI-8226 leukemia
EKVX NSCLC = tested on: EKVX NSCLC
OVCAR-4 ovarian = tested on: OVCAR-4 ovarian
K-562 leukemia = tested on: K-562 leukemia
MALME-3M melanoma = tested on: MALME-3M melanoma
COLO 205 colon = tested on: COLO 205 colon
HOP-92 NSCLC = tested on: HOP-92 NSCLC
SN12C renal = tested on: SN12C renal
786-0 renal = tested on: 786-0 renal

Structure (SMILES)	TGI (TK-10 renal) [µM]	TGI (RPMI-8226 leukemia) [µM]	TGI (EKVX NSCLC) [µM]	TGI (OVCAR-4 ovarian) [µM]	TGI (K-562 leukemia) [µM]	TGI (MALME-3M melanoma) [µM]	TGI (COLO 205 colon) [µM]	TGI (HOP-92 NSCLC) [µM]	TGI (SN12C renal) [µM]	TGI (786-0 renal) [µM]	GI50 (TK-10 renal) [µM]	GI50 (RPMI-8226 leukemia) [nM]	GI50 (EKVX NSCLC) [nM]	GI50 (OVCAR-4 ovarian) [nM]	GI50 (K-562 leukemia) [nM]	GI50 (MALME-3M melanoma) [nM]	GI50 (COLO 205 colon) [nM]	GI50 (HOP-92 NSCLC) [nM]	GI50 (SN12C renal) [nM]	GI50 (786-0 renal) [nM]
O=C(N/C(=C\c1ccc(F)cc1)c1nc2ccccc2[nH]1)c1ccccc1	> 100	> 100	> 100	> 100	> 100	> 100	> 100	> 100	> 100	> 100										
CN(C)Cc1cc(C(C)(C)C)cc(CN(C)C)c1O	> 100	> 100	> 100	> 100	> 100	> 100	> 100	> 100	> 100	> 100										
C1CC[N-]CC1.CC(=N\O)/C(C)=N/O.CC(=N\O)/C(C)=N/O.C[CH-]C(C)O.[Co+2]	60.4	43.4	> 100	> 100	45.8	29.7	29	48.6	> 100	> 100	23.8	18800	35700	33100	19300	15200	14900	19400	40100	33900
CC(CC(=O)Nc1ccc(NC(=O)CC(C)N=NC(N)=O)cc1)N=NC(N)=O (centres undefined)	> 100	> 100	> 100	> 100	> 100	> 100	> 100	> 100	> 100	> 100										
C[C@@H](C[C@H](CCO)c1ccccc1)c1ccc2ccccc2c1	3.12	4.26	2.82	2.88	3.82	2.89	3.41	2.77	3.22	2.89	1.62	1850	1440	1510	1630	1490	1750	1390	1690	1510
COc1cc([C@@H]2c3cc4c(cc3[C@@H](NCc3cccc(F)c3)C3COC(=O)[C@@H]32)OCO4)cc(OC)c1O (some centres undefined)	40.9	19.2	38	> 65	28.9	21.5	> 65	> 65	12.8	10.2										
Cc1ccc(C)c(NC(=O)C(=O)Nn2c(=S)[nH]c3ccccc3c2=O)c1	> 100	> 100	> 100	> 100	> 100	> 100	> 100	> 100	> 100	> 100										
Cc1c2ccccc2c(C)n2c1nc1cc(Cl)c(Cl)cc12	> 100	> 100	> 100	> 100	72.1		> 100	> 100	> 100	> 100	> 100	18400	93700	22400	14300	> 100000	19200	> 100000	> 100000	> 100000
COc1cc(CCc2ccncc2)cc(OC)c1OC	> 100	> 100	> 100	> 100	> 100	> 100	> 100	> 100	> 100	> 100										
C=C1C(=O)OC2(C)CCC1CC1OC1(C)CCC=C(C)CCC2O (centres undefined)	> 100	> 100	> 100	> 100	> 100	> 100	> 100	> 100	> 100	> 100										
C=CCCC(=O)CC(=O)OCc1ccccc1	> 100	> 100	> 100	> 100	> 100	> 100	> 100	> 100	> 100	> 100										
Cc1nc2sc(C(=O)Nc3ccccc3)c(N)c2cc1C(=O)c1ccccc1	> 50	> 50	> 50	> 50	> 50	> 50	7.55	> 50	> 50	> 50	3.09	1860	2740	34700	1690	5500	1860	9470	3010	1810
CNc1nc(-c2ccc3c(N)n[nH]c3c2)cc(N2C[C@@H](C(=O)NC3CCCCC3)CC[C@H]2C)n1	9.46	18.3	15.4	23.1	39	10.7	12	3.99	20.2	14.6	0.366	2930	2120	3600	3780	302	1540	189	3040	3280
CN1C/C(=C\c2ccc(C(=O)O)cc2)C(=O)/C(=C/c2ccc(C(=O)O)cc2)C1	> 100	> 100	> 100	> 100	> 100	> 100	> 100	> 100	> 100	> 100										
COc1cc2c(=O)n(CC3CCCCC3)c3c4cc[nH]c4ncc3c2cc1OC	18.9	> 50	> 50	10.3	15.8	26.3	11.7	2.78	11.6	9.25	4.66	3100	5520	1100	187	6330	1670	137	1460	1310
COc1ccc(C2C3=C(COC3=O)N(CCO)c3cc4c(cc32)CCC4)cc1 (centres undefined)	39.9	> 50	> 50	> 50	> 50	> 50	> 50	> 50	> 50	> 50	3.36	11400	13500	5460	1690	3060	6200	> 50000	19000	4800
COC(=O)[C@@H](C)C[C@H](Cc1ccccc1)NC(=O)c1csc([C@@H](C[C@H](C(C)C)N(C)C(=O)[C@@H](NC(=O)[C@H]2CCCCN2C)C(C(F)(F)F)C(F)(F)F)OC(C)=O)n1	> 16.7	3.22	> 16.7	> 16.7	> 16.7	> 16.7	0.556	1.04	> 16.7	3.53	4.6	59	102	309	12.4	43.7	65.8	18.5	106	53.5
COc1ccc(/C=C/C(=O)c2ccc(Nc3nc(Nc4ccc(F)cc4)nc(Nc4ccc(F)cc4)n3)cc2)cc1	42.7	> 100	> 100	> 100	> 100	46.6	29.6	31.4	> 100	26.9	11.8	6660	23900	27400	4070	8940	9570	8800	55100	6030
NC1=C(O)C(=O)C(c2c[nH]c3ccc(OCc4ccccc4)cc23)O1 (centres undefined)	> 100	> 100	> 100	> 100	> 100	> 100	> 100	> 100	> 100	> 100										
COC(=N)CCCl	> 100	> 100	> 100	> 100	> 100	> 100	> 100	> 100	> 100	> 100										
O=S(=O)(Nc1ccc(Cl)c(Cl)c1)c1ccc(-c2cnc(C3CC3)o2)cc1	36.1	43.5	30.4	20.6	> 38.3	25.8	3.36	12.5	17.3	18.8	10.3	612	1150	1160	280	2670	501	367	761	668
N#C/C(=C1\OC(N)=C(c2ccc(Cl)cc2)C1=O)c1ccc(Cl)cc1	41.4	50	32.4	32	> 100	34.3	32.8	32.2	23	29.4										
CS(=O)(=O)CCNCc1ccoc1-c1ccc2ncnc(Nc3ccc(OCc4ccccc4)cc3)c2c1	> 25	> 25	> 25	> 25	> 25	> 25	> 25	> 25	> 25	> 25	1.38	> 25000	1030	> 25000	14400	> 25000	24800	1980	> 25000	> 25000
CC1=CC(=O)N2C(OC[C@@H]2c2ccccc2)O1 (some centres undefined)	> 100	> 100	> 100	> 100	> 100	> 100	> 100	> 100	> 100	> 100										
COc1ccc(F)cc1-c1ccnc2[nH]c(C3=CCN(C4CCC(CC(=O)O)CC4)CC3)cc12 (centres undefined)	> 100	0.786	40.9	6.44	> 100	0.563	0.561	0.666	35.5	37.3	0.344	235	289	282	316	206	74.7	56.8	146	219
CCC(C)N1CN(c2ccccc2)C2(CCN(CCCC3(c4ccc(F)cc4)OCCO3)CC2)C1=O (centres undefined)	20.7	4	17.6	> 49.4	34.3	9.5	16.8	0.959	18.9	13.3										
NC1=Nc2ccccc2Sc2ccccc21	> 100	> 100	> 100	> 100	> 100	> 100	> 100	> 100	> 100	> 100										
N=C1C=C(N)C(=O)c2ccccc21	1.7	0.669	0.421	0.243	0.556	0.321	0.664	0.496	0.376	0.406	0.599	241	202	103	231	173	267	207	188	202
CN1CCN(c2nc3cc(F)ccc3n3cccc23)CC1	> 100	> 100	> 100	> 100	> 100	62.4	> 100	> 100	> 100	> 100										
CC[C@@H](C(=O)[C@@H](C)[C@@H](O)[C@H](C)[C@@H]1O[C@@H]([C@@H](CC)C(=O)O)CC[C@@H]1C)[C@H]1O[C@]2(C=C[C@@H](O)[C@]3(CC[C@@](C)([C@H]4CC[C@](O)(CC)[C@H](C)O4)O3)O2)[C@H](C)C[C@@H]1C	17.8	3.75	24.8	34	5.72	1.81	11	5.1	44.8	19.2	0.942	277	1110	1120	207	416	489	266	226	1250
